The source of these data is patent US20050054625A1, “Method for treating diseases using HSP90-inhibiting agents in combination with nuclear export inhibitors” (Kosan Biosciences, Inc., priority 2003, published 2005).

The subject of this test is DLD-1 cells (human colorectal cancer cells). Description: Cell viability (MTS) drug combination assay, combination index. The class given is cell-based. To be noted: combination with 17-AAG, CI<1 synergism. The method, then:
Human colon adenocarcinoma cell line, DLD-1, and human breast adenocarcinoma cell line, SKBr-3, were obtained from American Type Culture Collection (manassas, VA). DLD-1 cells were maintained in RPMI 1640 medium supplemented with 10% fetal bovine serum, and SKBr-3 cells were cultured in McCoy's 5a medium supplemented with 10% fetal bovine serum. 17-DMAG and 17-AAG were obtained using published procedures. Other cytotoxic agents were purchased commercially from suppliers such as Sigrna Chemical Co. (St. Louis, Mo.) and Sequoia Research Products (Oxford, UK).
Cells were seeded in duplicate in 96-well microtiter plates at a density of 5,000 cells per well and allowed to attach overnight. […] Cell viability was determined using the MTS assay (Promega). […] Cell viability was determined by the MTS assay.
Synergism, additivity or antagonism was determined by median effect analysis using the combination index (CI) calculated using Calcusyn (Biosoft, Cambridge, UK). The combination index is defined as follows: CI=[D]1/[Dx]1+[D]2/[Dx]2 The quantities [D]1 and [D]2 represent the concentrations of the first and second drug, respectively, that in combination provide a response of x % in the assay. The quantities [Dx]1 and [Dx]2 represent the concentrations of the first and second drug, respectively, that when used alone provide a response of x % in the assay. […]

callystatin: the “CI value, 17-AAG Pre-Administration” value (17-AAG given 24 hours before the nuclear export inhibitor (48 hours)) worked out at 0.95 ± 0.04. The “CI value, 17-AAG Post-Administration” value (nuclear export inhibitor alone 24 hours, then 17-AAG for 48 hours) was determined as 0.81 ± 0.06.
